# Data reported in patent US11787785B2 (NOVARTIS AG, priority 2021, dated 2023).
# Like-named read-outs stand apart in the source and are kept apart here.
# Biological target: T1, WIZ protein (HiBit-WIZ fusion protein) (Homo sapiens, UniProt O95785+Q96SW2)
# T1 construct: expressed in transfected cells
# Test: Quantification of WIZ protein levels in HiBit tag fusion protein assay (WIZ HiBit assay in 293T cells)
# Type: cell-based
# Set-up: remaining activity / Dmax: dose or concentration left out as unconfirmed
# Protocol: The HiBit system from Promega was used to develop high-throughput and quantitative assays to measure changes in WIZ protein levels in response to compounds. The HiBit tag was derived from a split Nanoluciferase and has the following protein sequence: […] (SEQ ID NO: 1). The complementary fragment of Nanoluciferase (known as LgBit, from Promega), was added to the HiBit tag to form an active Nanoluciferase enzyme whose activity can be precisely measured. In this way, the levels of a fusion protein with the HiBit tag can be quantified in cell lysates.
# Lentiviral vectors, based on the Invitrogen™ pLenti6.2/V5 DEST backbone were constructed that places the HiBit tag upstream of WIZ and expressed the fusion protein from an HSVTK promotor.
# To ensure moderate and consistent expression of the HiBit-WIZ fusion protein across all cells in the population, stable cell lines were constructed from cells harboring a single copy of the construct. Lentivirus packaged with the constructs were made using the ViraPower™ kit from Invitrogen™. 293T cells from ATCC (Catalog number: CRL-3216), were infected with the virus at low multiplicity of infection and selected by 5 μg/mL blasticidin in culture media for 2 weeks.
# The levels of HiBit-WIZ tagged fusion proteins in compound-treated cell lines were measured as follows:
# On day 1, cells were diluted to 1.0×10^6 cells/ml in normal growth medium. 20 μL of cell suspension were plated in each well of a solid white 384-well plate. Plates were incubated overnight in a 37° C. and 5% CO2 humidified tissue culture incubator.
# On day 2, serial dilutions of compounds were made in 384-well plates. Compound plates were set up with DMSO in columns 1, 2, 23, 24, and 10-point compound dilution series in column 3-12 and column 13-22. 10 mM stock solution of compound were placed into column 3 or 13 and a 1:5 serial dilution was carried out until there was a 10-point dilution series per compound. 50 nL of diluted compounds were transferred into the plated cells by Echo® (Labcyte) acoustic transfer. The highest concentration of compound was 25 μM. Plates were incubated overnight (about 18 hours) in a 37° C. and 5% CO2 humidified tissue culture incubator.
# On day 3, plates were removed from the incubator and allowed to equilibrate at room temperature for 60 minutes. HiBit substrate (Nano-Glo® HiBit Lytic Detection System, Promega Catalogue number: N3050) was added as described by the manufacturers protocols. Plates were incubated at room temperature for 30 minutes and luminescence was read using an EnVision® reader (PerkinElmer®). Data was analyzed and visualized using the Spotfire® software package.
# WIZ Degradation Activity of Compounds (Table 1)
# WIZ Amax reflects the DMSO-normalized, curve-fitted percentage of WIZ-HiBit remaining at 25 uM. It was calculated by normalizing […] controls to 100%, parametric curve fitting of the dose response data (10-point, 5-fold), followed by calculation of response at 25 uM using the fitted equation (nd=not determined).
# [1] = HEK-293T, 100 − Amax, at 25 uM; 293T cells; read-out: % degradation of WIZ (100 − Amax)
# [2] = HEK-293T, DMSO-normalized, curve-fitted percentage of WIZ-HiBit remaining at 25 uM; 293T cells; read-out: WIZ Amax
# [3] = WIZ HiBit assay in 293T cells; 10-point, 5-fold dose response, highest concentration 25 μM, about 18 hours; read-out: WIZ AC50
# T1 sequence (O95785 whole entry, the tested form may be a part): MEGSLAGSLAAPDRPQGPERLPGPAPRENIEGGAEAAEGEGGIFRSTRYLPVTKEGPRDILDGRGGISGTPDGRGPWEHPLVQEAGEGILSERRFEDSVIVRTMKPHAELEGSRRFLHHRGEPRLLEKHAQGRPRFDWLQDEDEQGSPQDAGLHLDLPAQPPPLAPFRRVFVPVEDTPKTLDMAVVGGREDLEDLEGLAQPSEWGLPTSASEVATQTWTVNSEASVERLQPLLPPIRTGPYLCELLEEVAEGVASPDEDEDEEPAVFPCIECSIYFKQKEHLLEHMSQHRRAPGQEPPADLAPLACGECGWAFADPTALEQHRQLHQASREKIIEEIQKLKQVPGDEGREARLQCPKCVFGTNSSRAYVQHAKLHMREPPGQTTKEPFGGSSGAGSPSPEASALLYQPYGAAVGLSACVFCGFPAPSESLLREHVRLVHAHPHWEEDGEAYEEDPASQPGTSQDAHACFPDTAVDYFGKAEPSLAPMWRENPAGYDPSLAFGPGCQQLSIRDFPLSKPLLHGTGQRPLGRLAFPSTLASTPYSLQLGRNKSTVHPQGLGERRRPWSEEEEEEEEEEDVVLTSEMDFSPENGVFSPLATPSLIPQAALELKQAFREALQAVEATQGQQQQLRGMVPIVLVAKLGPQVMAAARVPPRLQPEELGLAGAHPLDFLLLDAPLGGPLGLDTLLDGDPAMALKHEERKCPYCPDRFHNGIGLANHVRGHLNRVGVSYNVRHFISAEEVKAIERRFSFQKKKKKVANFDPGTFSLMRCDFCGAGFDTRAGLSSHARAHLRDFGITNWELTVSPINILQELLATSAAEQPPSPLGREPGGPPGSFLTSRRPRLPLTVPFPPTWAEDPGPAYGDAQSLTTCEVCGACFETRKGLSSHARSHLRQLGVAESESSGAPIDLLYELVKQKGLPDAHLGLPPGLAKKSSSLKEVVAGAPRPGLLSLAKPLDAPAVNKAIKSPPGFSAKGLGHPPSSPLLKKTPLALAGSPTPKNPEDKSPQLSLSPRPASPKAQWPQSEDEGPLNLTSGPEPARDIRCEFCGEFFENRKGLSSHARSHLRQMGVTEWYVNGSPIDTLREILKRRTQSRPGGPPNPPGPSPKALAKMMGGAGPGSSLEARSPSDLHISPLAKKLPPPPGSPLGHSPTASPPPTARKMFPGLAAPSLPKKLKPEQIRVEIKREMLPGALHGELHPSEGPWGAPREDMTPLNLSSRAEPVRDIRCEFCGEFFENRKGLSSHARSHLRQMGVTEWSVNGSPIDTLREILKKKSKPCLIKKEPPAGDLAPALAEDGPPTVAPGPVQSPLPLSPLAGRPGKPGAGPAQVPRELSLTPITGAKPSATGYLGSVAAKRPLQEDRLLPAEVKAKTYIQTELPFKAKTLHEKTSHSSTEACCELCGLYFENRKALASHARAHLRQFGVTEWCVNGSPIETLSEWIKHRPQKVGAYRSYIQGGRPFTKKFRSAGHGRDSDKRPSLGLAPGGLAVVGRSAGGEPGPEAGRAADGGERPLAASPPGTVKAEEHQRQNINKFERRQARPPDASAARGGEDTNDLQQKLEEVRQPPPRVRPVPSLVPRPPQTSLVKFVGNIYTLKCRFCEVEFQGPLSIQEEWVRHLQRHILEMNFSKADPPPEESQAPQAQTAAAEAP
# T1 sequence (Q96SW2 whole entry, the tested form may be a part): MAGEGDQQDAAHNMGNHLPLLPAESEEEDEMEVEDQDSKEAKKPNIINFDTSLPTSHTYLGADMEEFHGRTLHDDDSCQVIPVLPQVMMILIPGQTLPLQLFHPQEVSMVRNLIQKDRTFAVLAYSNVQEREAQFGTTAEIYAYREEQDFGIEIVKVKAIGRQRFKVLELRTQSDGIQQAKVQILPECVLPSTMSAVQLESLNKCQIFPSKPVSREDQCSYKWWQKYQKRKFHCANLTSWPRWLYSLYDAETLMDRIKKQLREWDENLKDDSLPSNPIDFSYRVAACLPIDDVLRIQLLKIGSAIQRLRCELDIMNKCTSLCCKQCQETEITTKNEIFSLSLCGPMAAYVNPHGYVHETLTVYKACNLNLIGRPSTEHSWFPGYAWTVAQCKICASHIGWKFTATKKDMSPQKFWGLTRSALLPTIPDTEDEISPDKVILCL
# T1 sequence (Q16531 whole entry partner, the tested form may be a part): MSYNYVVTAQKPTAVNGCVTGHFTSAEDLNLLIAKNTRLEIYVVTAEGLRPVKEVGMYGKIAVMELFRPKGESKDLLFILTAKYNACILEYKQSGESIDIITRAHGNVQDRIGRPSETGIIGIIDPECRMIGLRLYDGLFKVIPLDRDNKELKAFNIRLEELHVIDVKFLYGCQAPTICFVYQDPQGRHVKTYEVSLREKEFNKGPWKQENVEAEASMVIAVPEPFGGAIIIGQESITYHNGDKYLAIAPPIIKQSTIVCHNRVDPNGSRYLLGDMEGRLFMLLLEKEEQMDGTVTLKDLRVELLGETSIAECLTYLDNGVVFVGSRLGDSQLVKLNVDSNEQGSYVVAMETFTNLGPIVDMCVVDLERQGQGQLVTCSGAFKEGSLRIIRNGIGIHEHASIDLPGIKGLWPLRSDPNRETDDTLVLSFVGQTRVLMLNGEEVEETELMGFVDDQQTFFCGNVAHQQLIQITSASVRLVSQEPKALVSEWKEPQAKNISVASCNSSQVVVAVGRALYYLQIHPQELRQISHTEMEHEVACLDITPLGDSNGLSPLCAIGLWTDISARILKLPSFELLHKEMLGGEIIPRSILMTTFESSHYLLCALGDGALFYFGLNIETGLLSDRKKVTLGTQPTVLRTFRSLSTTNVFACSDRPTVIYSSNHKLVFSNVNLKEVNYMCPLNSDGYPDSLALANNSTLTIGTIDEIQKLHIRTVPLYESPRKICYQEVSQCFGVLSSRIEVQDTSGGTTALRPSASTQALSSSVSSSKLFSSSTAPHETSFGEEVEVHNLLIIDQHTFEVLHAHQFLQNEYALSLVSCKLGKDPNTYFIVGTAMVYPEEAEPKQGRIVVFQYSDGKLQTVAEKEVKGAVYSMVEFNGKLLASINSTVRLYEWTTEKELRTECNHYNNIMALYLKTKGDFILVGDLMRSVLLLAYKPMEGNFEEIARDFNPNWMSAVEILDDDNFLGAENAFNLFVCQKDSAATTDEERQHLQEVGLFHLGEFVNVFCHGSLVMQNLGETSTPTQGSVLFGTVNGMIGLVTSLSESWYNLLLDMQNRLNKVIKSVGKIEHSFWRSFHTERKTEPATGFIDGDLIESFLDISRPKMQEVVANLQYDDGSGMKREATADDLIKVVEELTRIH
Structure (SMILES),Dmax at 25 µM [1] [%],remaining activity at 25 µM [2] [%],DC50 [3] [nM],"Dmax (HEK-293T, read-out: % degradation of WIZ (100 − Amax)) [%]","remaining activity (HEK-293T, read-out: WIZ Amax) [%]","DC50 (read-out: WIZ AC50; WIZ HiBit assay in 293T cells; 10-point, 5-fold dose response, highest concentration 25 μM, about 18 hours) [nM]"
"CC(C)CN1CC[C@@H](Cc2ccn3ncc(-n4cc(F)c(=O)[nH]c4=O)c3c2)C[C@@H]1C [Example 349, 5-fluoro-1-(5-(((2S,4R)-1-isobutyl-2-methylpiperidin-4-yl)methyl)pyrazolo[1,5-a]pyridin-3-yl)pyrimidine-2,4(1H,3H)-dione]",86,14,118,,,
"COc1cn(-c2cnn3ccc(CN4CCN(CC(C)C)[C@@H](C)C4)cc23)c(=O)[nH]c1=O [Example 360, (S)-1-(5-((4-isobutyl-3-methylpiperazin-1-yl)methyl)pyrazolo[1,5-a]pyridin-3-yl)-5-methoxypyrimidine-2,4(1H,3H)-dione]",24,76,> 25000,,,
"C[C@H]1CN(Cc2ccn3ncc(N4CCC(=O)NC4=O)c3c2)CCN1C1CC2(C1)CN(S(C)(=O)=O)C2 [Example 337, (S)-1-(5-((3-methyl-4-(2-(methylsulfonyl)-2-azaspiro[3.3]heptan-6-yl)piperazin-1-yl)methyl)pyrazolo[1,5-a]pyridin-3-yl)dihydropyrimidine-2,4(1H,3H)-dione]",83,17,399,,,
"O=C1CCN(c2cnn3ccc(CC4CCN(CC5CCCCCC5)CC4)cc23)C(=O)N1 [Example 8, 1-(5-((1-(cycloheptylmethyl)piperidin-4-yl)methyl)pyrazolo[1,5-a]pyridin-3-yl)dihydropyrimidine-2,4(1H,3H)-dione]",86,14,8,,,
"O=C1CCN(c2cnn3ccc(CC4CCN(CC5CCC5)CC4)cc23)C(=O)N1 [Example 18, 1-(5-((1-(cyclobutylmethyl)piperidin-4-yl)methyl)pyrazolo[1,5-a]pyridin-3-yl)dihydropyrimidine-2,4(1H,3H)-dione]",82,18,34,,,
"C[C@H]1C[C@@H](Cc2ccn3ncc(N4CCC(=O)NC4=O)c3c2)CCN1CC1CCCCC1 (single isomer, unassigned) [Example 71]",85,15,7,,,
O=C1CCN(c2cnn3ccc(CN4CCN(CCC5CCOCC5)CC4)cc23)C(=O)N1 [Example 161],80,20,115,,,
"O=C1CCN(c2cnn3ccc(CC4CCN(C5COC5)CC4)cc23)C(=O)N1 [Example 281, 1-(5-((1-(oxetan-3-yl)piperidin-4-yl)methyl)pyrazolo[1,5-a]pyridin-3-yl)dihydropyrimidine-2,4(1H,3H)-dione]",83,17,4,,,
Cn1nccc1CN1CCC(Cc2ccn3ncc(N4CCC(=O)NC4=O)c3c2)CC1 [Example 114],68,32,90,,,
C[C@H]1C[C@H](Cc2ccn3ncc(N4CCC(=O)NC4=O)c3c2)CCN1S(C)(=O)=O [Example 284],80,20,18,,,
"O=C1CCN(c2cnn3ccc(CC4(F)CCN(Cc5ccccc5)CC4)cc23)C(=O)N1 [Example 126, 1-(5-((1-benzyl-4-fluoropiperidin-4-yl)methyl)pyrazolo[1,5-a]pyridin-3-yl)dihydropyrimidine-2,4(1H,3H)-dione]",35,65,290,,,
"C[C@@H]1CC(CN2CCN(Cc3ccn4ncc(N5CCC(=O)NC5=O)c4c3)CC2)C[C@H](C)O1 (stereo partly drawn) [Example 193, 1-(5-((4-(((2R,6S)-2,6-dimethyltetrahydro-2H-pyran-4-yl)methyl)piperazin-1-yl)methyl)pyrazolo[1,5-a]pyridin-3-yl)dihydropyrimidine-2,4(1H,3H)-dione]",86,14,10,,,
O=C1CCN(c2cnn3ccc(CN4CCN(Cc5cccc(F)c5)CC4)cc23)C(=O)N1 [Example 170],53,47,228,,,
C[C@H]1C[C@H](Cc2ccn3ncc(N4CCC(=O)NC4=O)c3c2)CCN1C(=O)C1CCC1 [Example 289],79,21,33,,,
"COc1ccccc1CN1CCC(Cc2ccn3ncc(N4CCC(=O)NC4=O)c3c2)CC1 [Example 122, 1-(5-((1-(2-methoxybenzyl)piperidin-4-yl)methyl)pyrazolo[1,5-a]pyridin-3-yl)dihydropyrimidine-2,4(1H,3H)-dione]",55,45,2580,,,
"CC1(C)CN(Cc2ccn3ncc(N4CCC(=O)NC4=O)c3c2)CCN1CC1CCCCC1 [Example 231, 1-(5-((4-(cyclohexylmethyl)-3,3-dimethylpiperazin-1-yl)methyl)pyrazolo[1,5-a]pyridin-3-yl)dihydropyrimidine-2,4(1H,3H)-dione]",53,47,150,,,
"CO[C@H]1C[C@H](CN2CC[C@@H](Cc3ccn4ncc(N5CCC(=O)NC5=O)c4c3)C[C@@H]2C)C1 [Example 302, 1-(5-(((2S,4R)-1-(((1r,3S)-3-methoxycyclobutyl)methyl)-2-methylpiperidin-4-yl)methyl)pyrazolo[1,5-a]pyridin-3-yl)dihydropyrimidine-2,4(1H,3H)-dione]",84,16,42,,,
"O=C1CCN(c2cnn3ccc(CN4CCN5CCCC[C@H]5C4)cc23)C(=O)N1 [Example 262, (S)-1-(5-((octahydro-2H-pyrido[1,2-a]pyrazin-2-yl)methyl)pyrazolo[1,5-a]pyridin-3-yl)dihydropyrimidine-2,4(1H,3H)-dione]",68,32,583,,,
"O=C1CCN(c2cnn3ccc(CC4CCN(CC5CCCC5)CC4)cc23)C(=O)N1 [Example 2, 1-(5-((1-(cyclopentylmethyl)piperidin-4-yl)methyl)pyrazolo[1,5-a]pyridin-3-yl)dihydropyrimidine-2,4(1H,3H)-dione]",91,9,23,,,
CCC(CC)N1CCN(Cc2ccn3ncc(N4CCC(=O)NC4=O)c3c2)CC1 [Example 164],69,31,323,,,
"CC(C)(C1CCC(F)(F)CC1)N1CCN(Cc2ccn3ncc(N4CCC(=O)NC4=O)c3c2)CC1 [Example 181, 1-(5-((4-(2-(4,4-difluorocyclohexyl)propan-2-yl)piperazin-1-yl)methyl)pyrazolo[1,5-a]pyridin-3-yl)dihydropyrimidine-2,4(1H,3H)-dione]",,,,75,25,30
O=C1CCN(c2cnn3ccc(CN4CCN(Cc5ccncc5)CC4)cc23)C(=O)N1 [Example 176],38,62,1400,,,
"Cc1cn(-c2cnn3ccc(CN4CCN(CC5CC5)[C@@H](C)C4)cc23)c(=O)[nH]c1=O [Example 362, (S)-1-(5-((4-(cyclopropylmethyl)-3-methylpiperazin-1-yl)methyl)pyrazolo[1,5-a]pyridin-3-yl)-5-methylpyrimidine-2,4(1H,3H)-dione]",84,16,765,,,
C[C@@H]1C[C@H](Cc2ccn3ncc(N4CCC(=O)NC4=O)c3c2)CCN1CC1CCOCC1 [Example 75],81,19,98,,,
